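The compound was tested at five concentrations on cells cultured in 96-well plates, with a 48-hour exposure period. The concentration for full growth arrest is given as TGI.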
Experiments:
Assay in all cases: DTP human tumour cell line panel, 48 h
[1] = tested on: SF-295 CNS
[2] = tested on: A498 renal
[3] = tested on: CCRF-CEM leukemia
[4] = tested on: T-47D breast
[5] = tested on: NCI/ADR-RES ovarian
[6] = tested on: K-562 leukemia
[7] = tested on: UACC-257 melanoma
[8] = tested on: CAKI-1 renal
[9] = tested on: SNB-75 CNS
[10] = tested on: TK-10 renal
[11] = tested on: NCI-H522 lung
[12] = tested on: MDA-MB-231 breast
[13] = tested on: NCI-H460 lung
[14] = tested on: HCC-2998 colon
[15] = tested on: SNB-19 CNS
[16] = tested on: SK-OV-3 ovarian
[17] = tested on: NCI-H226 lung
[18] = tested on: HCT-116 colon
[19] = tested on: LOX IMVI melanoma
[20] = tested on: UACC-62 melanoma
[21] = tested on: NCI-H23 lung
[22] = tested on: MCF7 breast
[23] = tested on: HS 578T breast
[24] = tested on: 786-0 renal
[25] = tested on: MDA-N
[26] = tested on: OVCAR-5 ovarian
[27] = tested on: IGROV1 ovarian
[28] = tested on: SN12C renal
[29] = tested on: MOLT-4 leukemia
[30] = tested on: HCT-15 colon
[31] = tested on: SF-539 CNS
[32] = tested on: SR leukemia
[33] = tested on: BT-549 breast
[34] = tested on: RXF 393 renal
[35] = tested on: HOP-62 NSCLC
[36] = tested on: HOP-92 NSCLC
[37] = tested on: ACHN renal
[38] = tested on: RPMI-8226 leukemia
[39] = tested on: SK-MEL-5 melanoma
[40] = tested on: PC-3 prostate
[41] = tested on: EKVX NSCLC
[42] = tested on: A549 NSCLC
[43] = tested on: UO-31 renal
[44] = tested on: OVCAR-4 ovarian
[45] = tested on: COLO 205 colon
[46] = tested on: SW-620 colon
[47] = tested on: HT29 colon
[48] = tested on: U251 CNS
[49] = tested on: SK-MEL-2 melanoma
[50] = tested on: M14 melanoma
[51] = tested on: DU-145 prostate
[52] = tested on: SF-268 CNS
[53] = tested on: MDA-MB-435
[54] = tested on: OVCAR-8 ovarian
[55] = tested on: MALME-3M melanoma
[56] = tested on: SK-MEL-28 melanoma
[57] = tested on: OVCAR-3 ovarian
[58] = tested on: KM12 colon

In the case of `Nc1nc(=O)n(C2CC(O)C(CO)O2)c2nc(-c3ccc(-c4ccccc4)cc3)cnc12` (stereo unspecified), the TGI [1] is reported as greater than 100 µM, the TGI [2] is reported as greater than 100 µM and the TGI [3] is reported as greater than 100 µM. It also gave a TGI [4] of 57.4 µM, a TGI [5] greater than 100 µM and a TGI [6] greater than 100 µM. For the same compound, the TGI [7] was greater than 100 µM, the TGI [8] was greater than 100 µM and the TGI [9] was 66.8 µM. The TGI [10] was greater than 100 µM, the TGI [11] was 48.9 µM and the TGI [12] was 50.1 µM. It also gave a TGI [13] greater than 100 µM, a TGI [14] greater than 100 µM and a TGI [15] of 91.1 µM. It also gave a TGI [16] greater than 100 µM, a TGI [17] of 64.9 µM and a TGI [18] greater than 100 µM. For the same compound, the TGI [19] was greater than 100 µM, the TGI [20] was 61.1 µM and the TGI [21] was greater than 100 µM. For the same compound, the TGI [22] was 54.1 µM, the TGI [23] was 93.9 µM and the TGI [24] was greater than 100 µM. The TGI [25] was greater than 100 µM, the TGI [26] was greater than 100 µM and the TGI [27] was greater than 100 µM. The TGI [28] was greater than 100 µM, the TGI [29] was 76 µM and the TGI [30] was greater than 100 µM. It also gave a TGI [31] greater than 100 µM, a TGI [32] greater than 100 µM and a TGI [33] greater than 100 µM. For the same compound, the TGI [34] was greater than 100 µM, the TGI [35] was 82.9 µM and the TGI [36] was greater than 100 µM. For the same compound, the TGI [37] was greater than 100 µM, the TGI [38] was greater than 100 µM and the TGI [39] was greater than 100 µM. For the same compound, the TGI [40] was greater than 100 µM, the TGI [41] was greater than 100 µM and the TGI [42] was greater than 100 µM. It also gave a TGI [43] greater than 100 µM, a TGI [44] greater than 100 µM and a TGI [45] greater than 100 µM. It also gave a TGI [46] greater than 100 µM, a TGI [47] greater than 100 µM and a TGI [48] of 42.6 µM. The TGI [49] was greater than 100 µM, the TGI [50] was greater than 100 µM and the TGI [51] was greater than 100 µM. For the same compound, the TGI [52] was 79 µM, the TGI [53] was greater than 100 µM and the TGI [54] was greater than 100 µM. It also gave a TGI [55] greater than 100 µM.
`C[C@H](OC(=O)/C=C/c1ccc(O)c(O)c1)[C@H](C)OC(=O)/C=C/c1ccc(O)c(O)c1` showed a TGI [1] of 19.8 µM, a TGI [2] of 51.7 µM and a TGI [4] greater than 100 µM. It also gave a TGI [5] of 63.1 µM, a TGI [6] greater than 100 µM and a TGI [7] of 29.7 µM. The TGI [8] was greater than 100 µM, the TGI [9] was 39.3 µM and the TGI [10] was 34.2 µM. For the same compound, the TGI [11] was 35.1 µM, the TGI [12] was 35.9 µM and the TGI [13] was greater than 100 µM. It also gave a TGI [14] of 33.4 µM, a TGI [15] of 25.6 µM and a TGI [16] of 32.3 µM. For the same compound, the TGI [18] was 23.3 µM, the TGI [19] was 22.6 µM and the TGI [20] was 12.6 µM. For the same compound, the TGI [21] was 18 µM, the TGI [22] was 70.7 µM and the TGI [23] was greater than 100 µM. For the same compound, the TGI [24] was 20 µM, the TGI [25] was 18.4 µM and the TGI [26] was 33.1 µM. The TGI [27] was 31.5 µM, the TGI [28] was 34 µM and the TGI [29] was greater than 100 µM. It also gave a TGI [30] of 25.9 µM, a TGI [31] greater than 100 µM and a TGI [32] greater than 100 µM. It also gave a TGI [33] of 24.1 µM, a TGI [34] of 28.5 µM and a TGI [35] of 26.6 µM. The TGI [36] was 38.2 µM, the TGI [37] was 30.5 µM and the TGI [38] was greater than 100 µM. For the same compound, the TGI [39] was 21.5 µM, the TGI [40] was greater than 100 µM and the TGI [41] was 33 µM. It also gave a TGI [42] greater than 100 µM, a TGI [43] of 21.9 µM and a TGI [56] of 28.6 µM. The TGI [44] was greater than 100 µM, the TGI [57] was 14.8 µM and the TGI [45] was 50.3 µM. For the same compound, the TGI [46] was 17.8 µM, the TGI [47] was greater than 100 µM and the TGI [48] was greater than 100 µM. For the same compound, the TGI [49] was 50.3 µM, the TGI [50] was 23.5 µM and the TGI [51] was 39.3 µM. For the same compound, the TGI [52] was 34.5 µM, the TGI [53] was 77.3 µM and the TGI [58] was greater than 100 µM. The TGI [54] was 26.2 µM and the TGI [55] was 31.9 µM.

From PubChem BioAssay (NCI)
